Results: patent US9107879B1, “Methods of increasing the cytotoxicity of chemotherapeutic agents with multisubstrate inhibitors of histone, protein-lys, polyamine acetylation, and polyamine metabolism” (Vanderbilt University, priority 2010, dated 2015)

What was measured:
H358 lung cancer cells = assay: [3H]-thymidine incorporation DNA synthesis assay; assay type: cell-based; details: for inhibition of DNA synthesis, single agent (FIG. 25): 1, 10 or 50 μM for 12 hours
Protocol: (A) Structures of 1a, and the acetylated side chain of a lysine residue within the polypeptide chain of a protein targeted by the acetylating enzyme (R1 and R2 are the main chain elements on both sides of the lysyl residue). (B) [^3H]-thymidine incorporation into DNA of H358 cells pulsed for 6 hrs at three different time points after the addition of increasing concentrations of 1a, i.e., at 6-12 hrs (12 hr curve), at 18-24 hours (24 hr curve), or at 42-48 hrs (48 hr curve). Incorporation is represented as a percentage relative to control (untreated) cells. (C) Cell cycle analysis of propidium iodide-stained cells harvested at various times after addition of 50 μM 1a. % of cells in G1, S, and G2 represents the average of two independent profiles. (D) Western analysis of histone H3 lysine 9 acetylation, histone H3 lysine 56 acetylation, histone H3 lysine 9 methylation, and total histone H3, before “c” or at the indicated times after addition of 50 μM 1a. Each lane represents 60 μg cellular protein.
Control cells were left untreated. […] Control cells were left untreated.
Cells were either labeled immediately before treatment (starting DNA synthesis rate), or subjected to the indicated treatments and then pulsed on successive days until day 4. DNA synthesis is represented as the percent of starting DNA synthesis rate. Viability was determined for each treatment condition 24 hours post-start of treatment by the trypan blue exclusion assay, with percentages of viable cells indicated to the right of the graph.
H358 cells (2,000/well) in 96-well plates were treated with 1, 10 or 50 μM of spd-1a, spd-2a, spd-3a, spm3, or spm2 for 12 hours. Triplicate wells of cells were pulsed 6 hours with 0.5 μCi [^3H]-thymidine (NEN, Boston Mass.) post-start of drug treatment, and harvested onto filter paper using a Brandel Harvester and subjected to scintillation counting. Untreated cells were pulsed 0-6 hrs to establish the initial rate of incorporation.
Cells were plated in 96-well plates (2000 cells per well to insure conditions for exponential growth for untreated cells over the time course of the experiment) and exposed to the following treatments: 1a (50 μM); camptothecin (Sigma, St Louis, Mo. 5 nM, 18 hours); cisplatin (Platinol, obtained through local pharmacies, 2 μM, 1 hour 15 minutes), 5-fluorouracil (5FU, Adrucil™, obtained through local pharmacies, 2 μM, 1 hour 15 minutes), Taxotere (provided by the late Dr. Pierre Potier, 5 nM, 18 hours). UVC treatment (40 J/m^2) using a Stratalinker™, Stratagene, La Jolla, Calif.) was carried using medium lacking phenol red. At 0-6 hr, 18-24 hr (day 1), 42-48 hr […], 66-72 hr (day 3), and 90-96 hr (day 4) post-start of treatment, triplicate wells were incubated with 0.5 μCi [^3H]-thymidine (NEN, Boston Mass.), harvested onto filter paper, and subjected to scintillation counting. Trypan blue exclusion assays for cell membrane integrity were carried out as known in the art.
The present inventors used [^3H]-thymidine incorporation assays to examine DNA synthesis in H358 lung cancer cells in the presence of varying concentrations of 1a. Cells were pulsed for 6 hours with [^3H]-thymidine at three different time points after the addition of 1a (i.e., at 6-12 hours, at 18-24 hours, and at 42-48 hours). The incorporation of [^3H]-thymidine into DNA decreased with increasing concentrations of 1a at all three time points, with the maximal effect occurring with the 6-12 hour pulse (FIG. 2B).
We then used [^3H]-thymidine incorporation assays to examine DNA synthesis in H358 lung cancer cells in the presence of 1a alone, or together with an 18 hour exposure to the DNA damaging drug, camptothecin (CPT), a plant alkaloid from which an important class of topoisomerase I-targeted chemotherapeutic agents (Hycamtin [topotecan] and Camptosar [irinotecan]) has been derived (Garcia-Carbonero, et al, 2002, Clin Cancer Res 8: 641-61). […]

GT41F skin fibroblasts = assay: 96-well MTS viability assay; assay type: cell-based, human; details: 3 days; for sensitivity of normal fibroblasts compared with cancer cell lines: single agent

Compound: CC(C)(COP(=O)(O)OP(=O)(O)OC[C@H]1O[C@@H](n2cnc3c(N)ncnc32)[C@H](O)[C@@H]1OP(=O)(O)O)[C@@H](O)C(=O)NCCC(=O)NCCSCC(=O)NCCCNCCCCN [1a, spermidine[N1]-CoA]
- sensitization to cisplatin (CDDP), UVC irradiation and 5-FU in DNA synthesis assay (H358 lung cancer cells; 50 μM 1a + cisplatin 2 μM, UVC 40 J/m2 or 5FU 2 μM): sensitized
- activity at 50 µM (H358 lung cancer cells; Homo sapiens, NCI-H358, 50 μM 1a + 5 nM camptothecin (18 h), 48 hours post-initiation, read-out: [3H]-thymidine incorporation, % of control incorporation): < 20%
- IC50 (H358 lung cancer cells; Homo sapiens, NCI-H358, 6-12 hour [3H]-thymidine pulse, read-out: IC50 for inhibition of DNA synthesis): 50 to 100 µM

Compound: CC(=O)NCCSCC(=O)NCCCNCCCCN [3a]
- sensitivity of normal fibroblasts compared with cancer cell lines (GT41F skin fibroblasts): less sensitive
- cell viability retained (GT41F skin fibroblasts; spd-3a 1 μM): ~60%
- inhibition of DNA synthesis, single agent (FIG. 25) (H358 lung cancer cells): inhibit DNA synthesis
- suppression of DNA synthesis in combination with camptothecin (H358 lung cancer cells; 3a + CPT 5 nM 18 hours, pulse from 42 hours): effective

Compound: CC[C@@]1(O)C(=O)OCc2c1cc1n(c2=O)Cc2cc3ccccc3nc2-1 [camptothecin]
- effect on [3H]-thymidine incorporation, single agent (H358 lung cancer cells; 1a 50 μM, camptothecin 5 nM (18 or 24 h)): no detectable effect

Compound: CC(=O)NCCSCC(=O)NCCCNCCCCNCCCN [spm-3]
- sensitivity of normal fibroblasts compared with cancer cell lines (GT41F skin fibroblasts): sensitivity similar to that of H358 lung cancer cells
- inhibition of DNA synthesis, single agent (FIG. 25) (H358 lung cancer cells): inhibit DNA synthesis
